# B1: TGFβ2: transforming growth factor beta 2, used for induction of gene expression (protein, UniProt P61812 303-414, looked up)
# Transforming growth factor …: ALDAAYCFRNVQDNCCLRPLYIDFKRDLGWKWIHEPKGYNANFCAGACPYLWSSDTQHSRVLSLYNTINPEASASPCCVSQDLEPLTILYYIGKTPKIEQLSNMIVKSCKCS
# Experiments:
# [1] = system: short-form c-Maf gene expression; assay: QPCR analysis of short-form c-Maf gene expression in SGTM2697 glaucomatous trabecular meshwork cells; type: cell-based, Human
# Description: (§1) Human trabecular meshwork (TM) cells were derived from donor eyes (Central Florida Lions Eye and Tissue Bank, Tampa, Fla.) and cultured as previously described (Steely, et al. (1992), Invest Ophthalmol Vis Sci 33(7): 2242-50; Wilson, et al. (1993), Curr Eye Res 12(9): 783-93; Clark, et al. (1994), Invest Ophthalmol Vis Sci 35(1): 281-94.; Dickerson, et al. (1998), Exp Eye Res 66(6): 731-8; Wang, et al. (2001), Mol Vis 7: 89-94). TM cells were derived from pools of four each of either normal or glaucoma cell lines. Total RNA was isolated from TM cells from each pool using TRIZOL® reagent according to the manufacturer's instructions (Invitrogen, Carlsbad, Calif.).
# First strand cDNA was generated from 1 μg of total RNA using random hexamers and TAQMAN® Reverse Transcription reagents according to the manufacturer's instructions (Applied Biosystems, Foster City, Calif.). The 100 μl reaction was subsequently diluted 20-fold to achieve an effective cDNA concentration of 0.5 ng/μl.
# Measurement of short form c-Maf gene expression was performed by quantitative real-time RT-PCR (QPCR) using an ABI PRISM® 7700 Sequence Detection System (Applied Biosystems) essentially as described Shepard, et al. (2001) Invest Ophthalmol Vis Sci 42(13): 3173-81. Primers for short form-specific c-Maf amplification (Genbank accession #AF055376) were designed using PRIMER EXPRESS® software (Applied Biosystems). Forward and reverse primer sequences were […], SEQ ID NO:1, (nucleotides 3773-3799) and […], SEQ ID NO:2, (nucleotides 3823-3847), and the minor groove binding probe sequence was CTGCAAGCATATAATACA, SEQ ID NO:3, (nucleotides 3801-3818). 6FAM was bound to the 5′ end of the minor groove binding probe and refers to the type of fluorophore attached to the TAQMAN® probe. Other choices for the fluorophore are the JOE™ Fluorophore (Applied Biosystems) or VIC™ fluorophore (Applied Biosystems). The “Minor Groove Binding Non-Fluorescent Quencher” was bound to the 3′ end of the probe and is used to quench the fluorescence from 6FAM. […] Quantification of relative cDNA concentrations was done using the relative standard curve method as described in PE Biosystems User Bulletin #2, ABI PRISM® 7700 Sequence Detection System, 2001 (Applied BioSystems). […]
# Short form c-Maf gene expression was analyzed using the Affymetrix U133A GENECHIP® analysis described in Example 2 of a pool of glaucomatous trabecular meshwork cells designated SGTM2697. […]
# The effect of small molecule inhibition on short-form c-Maf gene expression was analyzed by QPCR analysis as described in Example 2 in glaucomatous trabecular meshwork (Passage 6) cells designated SGTM2697. […]
# [2] = system: short-form c-Maf gene expression; assay: QPCR analysis of short-form c-Maf gene expression in TM70A trabecular meshwork cells; type: cell-based, Human; details: 10^−7 M dexamethasone, c-Maf/18S normalized ratio, n=3
# Description: as §1, with “Calif.). […]” for “Calif.).”
# Measurement of short form c-Maf gene expression was performed by quantitative real-time RT-PCR (QPCR) using an ABI PRISM® 7700 Sequence Detection System (Applied Biosystems) essentially as described Shepard, et al. (2001) Invest Ophthalmol Vis Sci 42(13): 3173-81. […] The “Minor Groove Binding Non-Fluorescent Quencher” was bound to the 3′ end of the probe and is used to quench the fluorescence from 6FAM. […] Quantification of relative cDNA concentrations was done using the relative standard curve method as described in PE Biosystems User Bulletin #2, ABI PRISM® 7700 Sequence Detection System, 2001 (Applied BioSystems). […]
molecule,measurement,setting,value
"CC(C)[C@H](CO)Nc1nc(Nc2cccc(Cl)c2)c2ncn(C(C)C)c2n1 [purvalanol A, 2-(1R-Isopropyl-2-hydroxyethylamino)-6-(3-chloroanilino)-9-isopropylpurine]",effect on TGFβ2-induced c-Maf expression,"[1]; SGTM2697 (Passage 6) cells, co-treatment with 5 ng/ml TGFβ2, 16 hours, n=6",completely abolished
same,basal c-Maf levels downregulated,"[1]; SGTM2697 (Passage 6) cells, without TGFβ2, 16 hours, n=6",2.6 fold
C[C@@H]1C[C@H]2[C@@H]3CCC4=CC(=O)C=C[C@]4(C)[C@@]3(F)[C@@H](O)C[C@]2(C)[C@@]1(O)C(=O)CO [dexamethasone],"short form c-Maf upregulated compared to control, day one",[2]; 1 day,2.1 fold
same,"short form c-Maf upregulated compared to control, day 14",[2]; 14 days,3.2 fold
B1,short-form c-Maf upregulated by TGFβ2,"[1]; SGTM2697 (Passage 6) cells, 5 ng/ml TGFβ2, 16 hours, n=6",17 fold
same,short form c-Maf upregulated compared to control,"[1]; pooled SGTM2697 cells, 5 ng/ml TGFβ2, 16 hours, c-Maf/18S normalized ratio, n=3",16 fold

# Reference: patent publication US20050159432A1, “Short form c-Maf transcription factor antagonists for treatment of glaucoma” (Alcon, Inc., priority 2003, published 2005)
